Test results from article PMC12305662, “Fragment-Based Development of Small Molecule Inhibitors Targeting Mycobacterium tuberculosis Cholesterol Metabolism” (Journal of Medicinal Chemistry, 2025).
Like-named read-outs stand apart in the source and are kept apart here.

Key:
CYP125 = CYP125 (Mycobacterium tuberculosis, UniProt P9WPP1); assay type: binding; conditions: for CYP125 Δλmax (nm) HS: high spin population, '-' = no HS maxima present; for CYP125 Δλmax (nm) LS: low spin population, '-' = no LS maxima present
Chain of CYP125 (P9WPP1 whole entry): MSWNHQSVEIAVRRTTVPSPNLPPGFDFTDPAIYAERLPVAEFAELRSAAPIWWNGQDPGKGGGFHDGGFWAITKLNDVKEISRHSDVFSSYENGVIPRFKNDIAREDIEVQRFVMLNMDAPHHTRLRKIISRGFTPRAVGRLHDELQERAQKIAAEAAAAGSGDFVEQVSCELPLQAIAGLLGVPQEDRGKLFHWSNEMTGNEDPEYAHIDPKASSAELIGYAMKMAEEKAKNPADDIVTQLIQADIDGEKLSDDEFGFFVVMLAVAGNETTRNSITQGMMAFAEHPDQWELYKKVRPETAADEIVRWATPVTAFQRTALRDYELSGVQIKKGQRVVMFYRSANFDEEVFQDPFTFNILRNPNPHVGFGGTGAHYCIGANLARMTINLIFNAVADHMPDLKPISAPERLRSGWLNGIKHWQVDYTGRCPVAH

CYP142 = CYP142 (Mycobacterium tuberculosis, UniProt P9WPL5); conditions: compound 100 µM, P450 5 µM
Chain of CYP142 (P9WPL5 whole entry): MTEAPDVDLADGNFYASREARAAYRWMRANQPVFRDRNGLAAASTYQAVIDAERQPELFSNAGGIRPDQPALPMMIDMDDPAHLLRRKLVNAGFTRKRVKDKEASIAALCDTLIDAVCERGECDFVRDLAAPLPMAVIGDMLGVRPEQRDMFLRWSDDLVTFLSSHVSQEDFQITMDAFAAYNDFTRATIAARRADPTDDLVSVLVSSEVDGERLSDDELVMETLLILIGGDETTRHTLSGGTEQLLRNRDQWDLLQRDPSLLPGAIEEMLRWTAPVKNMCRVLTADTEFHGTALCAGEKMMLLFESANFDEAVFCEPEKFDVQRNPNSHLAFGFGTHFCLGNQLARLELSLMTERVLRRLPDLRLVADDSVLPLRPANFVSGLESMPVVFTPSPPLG

[1] = compound 100 µM, P450 5 µM, ratio of low spin to high spin CYP125

Row | Molecule | CYP125 Δλmax (nm) HS (CYP125; compound 100 µM, P450 5 µM) [nm] | CYP125 Δλmax (nm) LS (CYP125; compound 100 µM, P450 5 µM) [nm] | CYP125 LS/HS (CYP125; [1]) | CYP142 Δλmax (nm) (CYP142) | CYP125 LS/HS (CYP125)
1 | 3-(Pyridin-4-ylmethyl)aniline [3d] | 3 | 29 |  |  | 
2 | CN(c1ccccc1)c1ccncc1 [2b, N-Methyl-N-phenylpyridin-4-amine] | 1 | 25 | 0.9 | 4 | 
3 | c1ccc(N(c2ccccc2)c2ccncc2)cc1 [2c, N,N-Diphenylpyridin-4-amine] | 2 | 28 | 1 | 4 | 
4 | c1ccc(Oc2ccncc2)cc1 [2d, 4-Phenoxypyridine] | 1 | 25 | 1 | 2 | 
5 | O=S(=O)(c1ccccc1)c1ccncc1 [2e, 4-(Phenylsulfonyl)pyridine] | 0 |  |  | 0 | 
6 | O=C(c1ccccc1)c1ccncc1 [2f] | 0 |  |  | 0 | 
7 | C(=C\c1ccncc1)/c1ccccc1 [2g, (E)-4-Styrylpyridine] |  | 29 | 1.4 | 3 | 
8 | c1ccc(CCc2ccncc2)cc1 [2h, 4-Phenethylpyridine] | 2 | 26 | 1 | 2 | 
9 | COc1cccc(Cc2ccncc2)c1 [3a, 4-(3-Methoxybenzyl)pyridine] | 1 | 27 | 1.1 | 2 | 
10 | COc1ccc(Cc2ccncc2)cc1 [3b, 4-(4-Methoxybenzyl)pyridine] | 1 | 25 | 1 | 2 | 
11 | Nc1ccc(Cc2ccncc2)cc1 [3e] | 3 | 29 |  | 3 | 1.7
12 | Nc1cccc(Nc2ccncc2)c1 [4a, N^1-(Pyridin-4-yl)benzene-1,3-diamine] | 1 | 22 | 0.9 | 3 | 
13 | Nc1ccc(Nc2ccncc2)cc1 [4b, N^1-(Pyridin-4-yl)benzene-1,4-diamine] | 1 | 31 | 1.3 | 3 | 
14 | COC(=O)c1cccc(Nc2ccncc2)c1 [4c, Methyl/Ethyl 3-(pyridin-4-ylamino)benzoate] | 1 | 27 | 1 | 3 | 
15 | COC(=O)c1ccc(Nc2ccncc2)cc1 [4d, Methyl 4-(pyridin-4-ylamino)benzoate] | 2 | 26 | 1 | 3 | 
16 | O=C(O)c1cccc(Nc2ccncc2)c1 [4e, 3-(Pyridin-4-ylamino)benzoic Acid] | 0 |  |  | 0 | 
17 | O=C(O)c1ccc(Nc2ccncc2)cc1 [4f, 4-(Pyridin-4-ylamino)benzoic Acid] | 1 |  |  | 0 | 
18 | OCc1cccc(Nc2ccncc2)c1 [4g] | 0 |  |  | 1 | 
19 | Brc1cccc(Nc2ccncc2)c1 [4h, N-(3-Bromophenyl)pyridin-4-amine] |  | 31 | 1.4 | 4 | 
20 | Brc1ccc(Nc2ccncc2)cc1 [4i, N-(4-Bromophenyl)pyridin-4-amine] | 2 | 29 | 1.2 | 4 | 
